Bounds are passed on as bounds.

The values that follow come from patent publication US20240158384A1, “CB2 RECEPTOR AGONISTS” (The Board of Trustees of the Leland Stanford Junior …, priority 2020, published 2024).

The target in one series is T1, GPR18 (Homo sapiens, UniProt Q14330).
T1 sequence (Q14330 1-331): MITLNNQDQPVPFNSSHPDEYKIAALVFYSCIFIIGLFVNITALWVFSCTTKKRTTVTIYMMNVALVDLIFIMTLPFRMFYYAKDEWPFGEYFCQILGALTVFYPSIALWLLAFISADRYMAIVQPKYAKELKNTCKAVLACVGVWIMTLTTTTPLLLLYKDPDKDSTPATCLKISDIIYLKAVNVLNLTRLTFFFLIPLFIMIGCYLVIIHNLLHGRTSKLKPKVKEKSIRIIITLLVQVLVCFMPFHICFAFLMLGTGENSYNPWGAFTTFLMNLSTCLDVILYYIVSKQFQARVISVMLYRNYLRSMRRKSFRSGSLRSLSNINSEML
The series is described as follows: Off-target activity GPR18 (agonist, antagonist, PAM modes). It is filed as cell-based. The method, then: (§1) Detailed characterization data was collected for Compound 22. Primary assays were carried out according to Examples 2 and 3, while other assays were carried out according to standard methods.

A short description of series [1]: Mouse hepatocytes metabolic stability. The series is classed as in vitro ADME. Here is the method: as §1
In another series the test system is Male C57Bl6J mice. The experiment in a line: Spontaneous locomotor activity in activity chamber. It is filed as in vivo, mouse. As to conditions: mice, compound alone i.p., 90 minutes after dosing, vs vehicle.
The nature of series [2]: Plasma and brain pharmacokinetics in mice. It is filed as in vivo. As to conditions: male, C57BL/6, mouse, 10 mg/kg. The method, then:
Plasma and brain concentrations of Compounds 11, 22, 16, and 24 were determined by LC-MS/MS after IV and PO dosing in male C57BL/6 mice at 10 mg/kg. Data are shown in FIGS. 10A-10D for Compounds 11, 22, 16, and 24, respectively.
as §1

Another series deals with GPR55 (Homo sapiens, UniProt Q9Y2T6). The experiment in a line: Off-target activity GPR55 (agonist, antagonist, PAM modes). The series is classed as cell-based. The method, then:
as §1

A short description of the next series: Brain protein binding. The series is classed as in vitro ADME. As to conditions: brain tissue. Here is the method:
as §1

In series [3] the test system is spontaneous DA transients in NAc. The experiment in a line: GRAB-DA fiber photometry, spontaneous DA transients. The series is classed as in vivo, mouse. The method, then: For this study, a probe was implanted into the nucleus accumbens (NAc) (FIG. 11A). Following baseline measurements, mice were dosed with vehicle or Compound 22 (10 mg/kg, i.p) followed 40 min later by a single dose of AMPH (2 mg/kg, i.p.). Samples were collected for 2 hr post-dosing. Extracellular dopamine (DA) levels in the dialysate were quantified by HPLC with electrochemical detection (FIG. 11B). […] Compound 22 modulates both spontaneous and reward-related DA release. To confirm these findings in parallel experiments, GPCR-activation based-DA (GRAB-DA) was used, which is a human D2R-GFP chimera sensor that produces fluorescence changes reliably and with sub-second kinetics in response to extracellular DA concentration changes in behaving animals (Sun et al. Cell 2018; 174(2):481-96.e19). Mice were injected with an adeno-associated virus (AAV) carrying GRAB-DA into the (NAc) (FIG. 11C) and allowed to recover for −2 weeks before fiber photometry experiments were performed. In the first pilot experiment, baseline DA release were recorded for 5 min before mice (n=3) were injected with either Compound 22 or vehicle and then recording was continued for 45 min. The rate of spontaneous DA transients was compared in the pre-injection (0-5 min) vs post-injection (35-50 min) periods; there was a significant time x drug interaction: F(1,4)=11.91, P=0.026.

Another series addresses human CB2R (Homo sapiens, UniProt P34972). The experiment in a line: PathHunter β-Arrestin assay, beta-arrestin recruitment. It is filed as cell-based. The method, then:
The assay was performed using the PathHunter β-Arrestin human CB2 cell line (catalog no. 93-0706C2) and using the PathHunter® β-Arrestin Assay for GPCR Cell Lines (source: DiscoveRx, Fremont, CA, USA), according to the manufacturer's protocol (https://www.discoverx.com/tools-resources/document-resource-library/documents/user-manual-pathhunter-% CE % B2-arrestin-assay-for-gpcr-c). Briefly, cells were seeded at a density of 10,000 cells per well in a 96-well plate and incubated overnight (16-18 h) in a humidified atmosphere at 37° C. and 5% C02. Agonist prepared in PBS was added and the assay plate incubated for 3 h in a humidified atmosphere at 37° C. and 5% C02. Working detection solution was added and the plate was incubated for 1 h in the dark at room temperature. Chemiluminescence was measured on an CLARIOstar plate reader (BMG LABTECH Inc., Cary, NC, USA).

Another series in a line: Plasma protein binding. It is filed as in vitro ADME. The method, then:
as §1

Sequence of human CB2R (P34972 whole entry): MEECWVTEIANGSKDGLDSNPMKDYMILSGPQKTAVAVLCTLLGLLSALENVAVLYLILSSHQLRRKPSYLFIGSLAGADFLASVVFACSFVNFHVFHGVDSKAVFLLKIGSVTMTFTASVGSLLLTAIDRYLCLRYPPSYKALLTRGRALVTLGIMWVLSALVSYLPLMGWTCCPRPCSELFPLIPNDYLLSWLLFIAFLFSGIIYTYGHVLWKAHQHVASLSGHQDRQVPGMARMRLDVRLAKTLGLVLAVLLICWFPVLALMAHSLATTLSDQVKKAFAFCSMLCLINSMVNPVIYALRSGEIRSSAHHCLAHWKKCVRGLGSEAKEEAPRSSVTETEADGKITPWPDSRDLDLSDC
Sequence of GPR55 (Q9Y2T6 whole entry, species assumed): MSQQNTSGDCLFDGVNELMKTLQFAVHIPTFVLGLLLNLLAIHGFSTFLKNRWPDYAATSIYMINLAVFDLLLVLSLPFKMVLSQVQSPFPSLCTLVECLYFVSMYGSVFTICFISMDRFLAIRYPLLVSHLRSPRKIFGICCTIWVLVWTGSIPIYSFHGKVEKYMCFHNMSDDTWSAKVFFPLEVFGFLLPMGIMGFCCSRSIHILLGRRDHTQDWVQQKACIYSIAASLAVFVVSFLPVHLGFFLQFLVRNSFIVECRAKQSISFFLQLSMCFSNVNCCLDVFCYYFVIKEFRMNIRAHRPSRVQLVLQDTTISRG

`CC(C)(CO)c1cc(NC(=O)N2CCCN2c2ccc(C(F)(F)F)cc2)no1` [Compound 22, N-(5-(1-hydroxy-2-methylpropan-2-yl)isoxazol-3-yl)-2-(4-(trifluoromethyl)phenyl)pyrazolidine-1-carboxamide]: the EC50 (commonly the concentration at which the effect is half-maximal) was greater than 10 µM on GPR18, greater than 10 µM at GPR55 and 0.578 µM on human CB2R. Besides, the IC50 at GPR18 and at GPR55 was greater than 10 µM throughout. Moreover, the “Mouse hepatocytes metabolic stability, clearance class” value in [1] was “Medium clearance”. Besides, in [1] (read-out: Mouse hepatocytes metabolic stability t ½), the half-life is greater than 2 h. Further, in the series with Male C57Bl6J mice, the “Distance moved / spontaneous locomotor activity” value is “do not exhibit significantly different distance moved compared to the vehicle”. In addition, in [2] (in vivo, Via oral administration, 3 mice, at 24 h, read-out: Brain to plasma ratio), the Kp at 24 h amounted to 0.97. For the same compound, the bioavailability (commonly the share of a dose that reaches the circulation, judged against a reference dose that is usually intravenous) in series [2] (plasma, Oral bioavailability) was found to be 100%. Further, the free fraction (fraction unbound) – broadly, the share of the substance not bound to proteins or other matrix – in the series “Brain protein binding” is 0.0198; in “Plasma protein binding” it was 0.0631. Further, in series [3] (before and after injection), the “Shape of the spontaneous DA transients” value is recorded as “widening the curve”. In [3] (pre-injection (0-5 min) vs post-injection (35-50 min), n=3), the “Rate of spontaneous DA transients” value is “reduced the rate of spontaneous transients”. For the same compound, on human CB2R (hCB2, CP-55940 as control), the “Activation of beta-arrestin pathway (in words)” value is recorded as “weak beta-arrestin activity”.
